Results reported in paper PMC4102924 (Science translational medicine, 2013).

Target: PDK2 (pyruvate dehydrogenase kinase 2) (Homo sapiens, UniProt Q15119)
Experiment: radiometric kinase assay with recombinant PDK2
Assay type: biochemical

Question: With O=C(O)CCCc1ccccc1 [phenylbutyrate] as the compound, how does the Ki read?
Answer: 330 ± 80 µM
